Laboratory results reported in US11104589B2, “Recycling method of amphiphilic surface-active pollutants in water” (INSTITUTE OF PROCESS ENGINEERING, CHINESE ACADEMY OF …, priority 2018, dated 2021).

Tested on: Human lung cancer cell line A549 cells
Experiment: MTT cytotoxicity assay
Type: cell-based
Conditions: 24 hours incubation
Experimental: Human lung cancer cell line A549 cells were grown in DMEM medium supplemented with 10% (v/v) of fetal bovine serum (FBS) and 1% of penicillin streptomycin. A549 was first incubated at 37° C. for 24 hours with a density of 5000 cells per well. After being washed with phosphate buffered saline (PBS, pH=7.4), A549 cells were incubated together with 200 μL of medium having various concentrations for 24 hours (15 μ[…]). Three sets of parallel replicates were prepared for each concentration. Then, the medium was removed and replaced with 20 μL of MTT solution (5 mg/mL). A549 cells were further incubated for 3 hours. The medium having MTT was removed and replaced with 100 μL of DMSO. The plate was then shaken for 10 minutes. To assess cell viability, the optical density of the mixture at 492 nm was measured by an enzyme-linked immunosorbent assay spectrophotometer (infinite […]). For labeling, A549 cells were incubated at 37° C. for 24 hours in a cell culture dish with glass bottom at a density of 5000 cells/well and then mixed with prepared FCNs samples. […] The cell culture dish with glass bottom was covered with a tin foil until cell images were obtained by fluorescence microscopy under excitation at 408 nm, 488 nm and 561 nm.

For CCCCCCCCC(=O)O [nonanoic acid], the “toxicity to the cells (cytotoxicity, MTT)” value (concentration greater than 3840 μM) was “significant toxicity to the cells” and the “effect on cell viability (cytotoxicity, MTT)” value (low concentration (15-240 μM)) was “almost no effect on cell viability”.
